Assay results reported in EP4755888A1 (ILAb Co., Ltd., priority 2023, dated 2025).
pEC50, pIC50: −log10 of the molar value.

Key:
PD-1/PD-L1 [1] = biological target: PD-1/PD-L1 (Homo sapiens, UniProt Q9NZQ7); assay: TR-FRET PD-1/PD-L1 binding inhibition at the molecular level (free proteins); settings: Tag1-PD-L1 and Tag2-PD-1 proteins, twelve concentrations from 200 nM, 2 hours at room temperature, read-out: FRET assay (IC50)
Summary of the method: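 HTRF read-out at 665/620 nm after 2 h at room temperature. Detection used anti-Tag1 Eu cryptate plus anti-Tag2 XL665 antibodies. Tagged PD-L1 and PD-1 proteins were pre-mixed with compound across twelve […] 1:2 dilutions starting at 200 nM.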

tumor = tumor growth inhibition in a group administered with the compound (FIG. 1); assay type: in vivo; settings: graph of FIG. 1; group administered with Compound 218; no numbers printed in this part
hPD-L1 = hPD-L1 (Homo sapiens, UniProt Q9NZQ7); assay: TR-FRET dimerization of hPD-L1 molecules; assay type: biochemical; settings: for pEC50: Fc tag-hPD-L1 and His tag-hPD-L1, twelve concentrations from 10 µM; for induction of dimerization of hPD-L1 molecules (in words): summary of Table 3
hPD-L1, sequence (Q9NZQ7 19-238 limits assumed): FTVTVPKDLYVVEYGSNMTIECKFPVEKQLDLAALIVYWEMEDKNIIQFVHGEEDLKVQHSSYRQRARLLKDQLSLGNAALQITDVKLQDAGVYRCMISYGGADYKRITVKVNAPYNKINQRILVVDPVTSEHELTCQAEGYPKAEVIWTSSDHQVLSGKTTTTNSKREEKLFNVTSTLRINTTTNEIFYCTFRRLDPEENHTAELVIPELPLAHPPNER
hPD-L1, sequence (Q9NZQ7 19-238 limits assumed): as above
Method: In order to evaluate the dimerization of hPD-L1 molecules induced by the compounds of the present invention synthesized according to the above Preparation Examples, a TR-FRET (Time-Resolved Fluorescence Energy Transfer) experiment was performed as described below.
Specifically, the compounds were prepared in a 96-well plate by serial dilution starting from 10 µM with 1/3 dilutions to obtain a total of twelve concentrations. Thereafter, 2 µL of each compound solution was added to a 384-well plate. Fc tag-hPD-L1 protein and His tag-hPD-L1 protein were each prepared at a 1x concentration, mixed at a ratio of 1:1 of above two proteins, and 8 µL of the mixed protein solution was added to each well of the 384-well plate containing the compounds, followed by incubation at room temperature for one day. On the following day, Anti-6His-Tb Cryptate Gold antibody and Anti-human IgG-XL665 antibody were each prepared at a 1x concentration, mixed at a ratio of 1:1, and 10 µL of the mixed antibody solution was added to each well of the 384-well plate containing the compounds and proteins, followed by incubation at room temperature for 2 hours. Upon completion of the reaction, fluorescence signals at wavelengths of 620 nm and 665 nm were measured using a microplate reader.

[2] = biological target: T1, PD-L1 expressed on the cell surface (MC38 hPD-L1) (Homo sapiens, UniProt Q9NZQ7); assay: Internalization of cell surface PD-L1, flow cytometry with fluorescent staining; assay type: cell-based; settings: MC38 hPD-L1 cells, 1 µM, 4 hours; untreated 90% to 99%
T1 construct: expressed in transfected cells; host or cells: MC38 mouse colon cancer cell line expressing human PD-L1
T1 sequence (Q9NZQ7 19-290): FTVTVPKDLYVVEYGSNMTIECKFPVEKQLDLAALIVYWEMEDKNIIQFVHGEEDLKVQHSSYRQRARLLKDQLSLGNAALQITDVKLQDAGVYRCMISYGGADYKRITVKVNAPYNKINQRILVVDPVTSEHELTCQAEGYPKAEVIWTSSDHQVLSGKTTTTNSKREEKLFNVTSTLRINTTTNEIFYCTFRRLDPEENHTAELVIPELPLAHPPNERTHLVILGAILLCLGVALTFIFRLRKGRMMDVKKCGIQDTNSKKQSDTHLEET
Method: In order to evaluate the internalization of cell surface PD-L1 induced by the compounds of the present invention synthesized according to the above Preparation Examples, a flow cytometry experiment using fluorescent staining was conducted as described below.
Specifically, a mouse colon cancer cell line expressing human PD-L1 (MC38 hPD-L1) was seeded into a 24-well plate at a density of 5 x 10^5 cells per well, followed by treatment with Compounds 206 to 227 at a concentration of 1 µM and incubation for 4 hours. After 4 hours, the compound-treated MC38 hPD-L1 cells were collected and stained with PE anti-hPD-L1 fluorecence at room temperature for 30 minutes. The rate of PD-L1 expression on the cell surface was then quantified using flow cytometry.

PD-1/PD-L1 [3] = assay: PD-1/PD-L1 blockade bioassay at the cellular level (PD-L1 aAPC/CHO-K1 cells + PD-1 Effector T cells, luciferase); assay type: cell-based; settings: Homo sapiens, T-cell; PD-L1 aAPC/CHO-K1 cells with PD-1 Effector T cells, 6 hours, luminescence; read-out: PD-1/PD-L1 Inhibitory Activity EC50
Method: In order to evaluate the effect of the compounds of the present invention, synthesized according to the above Preparation Examples, on blocking signal transduction between PD-1/PD-L1-expressing cells, a PD-1/PD-L1 blockade bioassay was conducted as described below.
Specifically, PD-L1 aAPC/CHO-K1 cells engineered to express human PD-L1 were seeded into a 96-well white plate and cultured for one day. On the following day, the compounds were prepared in a 96-well plate by serial dilution at concentrations starting from 10 µM and 5 µM, followed by 1/4 dilutions to obtain a total of ten concentrations. The culture medium in the plate seeded with the PD-L1 aAPC/CHO-K1 cell line was removed, and 40 µL of each prepared compound solution was added to a 96-well plate. Thereafter, 40 µL of PD-1 Effector T cell line engineered to express human PD-1 was additionally added, and then cultured for 6 hours. After 6 hours, 80 µL of Bio-Glo luciferase buffer was added to each well, followed by incubation at room temperature for 10 minutes, and luminescence was measured using a microplate reader.

MC38 hPD-L1 = assay: Tumor growth inhibition in MC38 hPD-L1 subcutaneous mouse model; assay type: in vivo; settings: 50 mg/kg intraperitoneally once daily, female C57BL/6 mice
Method: In order to evaluate whether the tumor inhibitory effects of the compounds synthesized according to the above Preparation Examples are also effective in vivo, animal experiments were conducted as described below.
A mouse colon cancer cell line expressing human PD-L1 (MC38 hPD-L1) was prepared at a density of 1.25 x 10^6 cells in 100 µL of DPBS and inoculated subcutaneously into the flank of 6-week-old female C57BL/6 mice. When the average tumor volume reached approximately 50 mm^3, the mice were divided into three experimental groups, with eight mice per group. Vehicle and Compound 218 (50 mg/kg) were administered intraperitoneally once daily, while Durvalumab (anti-PD-L1 mAb) was administered intraperitoneally twice per week. Tumor volume and body weight were measured every three days.

PD-1/PD-L1 (Homo sapiens, UniProt Q9NZQ7), sequence (Q9NZQ7 19-238 limits assumed): as the sequence (Q9NZQ7 19-238 limits assumed) above

SMILES | pIC50 (PD-1/PD-L1 [1]) | tumor growth inhibitory effect (tumor) | pEC50 (hPD-L1) | induction of dimerization of hPD-L1 molecules (in words) (hPD-L1) | Cell surface PD-L1 expression level (%) [2] | pEC50 (PD-1/PD-L1 [3]) | tumor growth inhibition compared to the vehicle-treated group (MC38 hPD-L1; Figure 1) | change in body weight of mice (MC38 hPD-L1; Figure 2)
O=C(O)CN[C@H]1CCCn2nc(C(=O)Nc3cccc(-c4cccc(Nc5nccc6cc(CN7CC[C@@H](O)C7)cnc56)c4Cl)c3Cl)cc21 [Compound 218, 2-(((S)-2-((2,2'-dichloro-3'-((3-(((R)-3-hydroxypyrrolidin-1-yl)methyl)-1,7-naphthyridin-8-yl)amino)-[1,1'-biphenyl]-3-yl)carbamoyl)-4,5,6,7-tetrahydropyrazolo[1,5-a]pyridin-4-yl)amino)acetic acid] | > 8.00 | tumor growth inhibitory effect | 8.21 | effectively induced dimerization of hPD-L1 molecules at the nanomolar level | 0.3% | 7.72 | significant inhibition of tumor growth | no change in body weight
O=C(Nc1cccc(-c2cccc(Nc3nccc4cc(CN5CC[C@H](O)C5)cnc34)c2Cl)c1Cl)c1cc2n(n1)CCC[C@H]2N1CCC(C(=O)O)CC1 [Compound 227, 1-((R)-2-((2,2'-dichloro-3'-((3-(((S)-3-hydroxypyrrolidin-1-yl)methyl)-1,7-naphthyridin-8-yl)amino)-[1,1'-biphenyl]-3-yl)carbamoyl)-4,5,6,7-tetrahydropyrazolo[1,5-a]pyridin-4-yl)piperidine-4-carboxylic acid] | 7.00 to 8.00 |  | 7.58 | effectively induced dimerization of hPD-L1 molecules at the nanomolar level | 1.6% | 7.69 |  | 
